The values below come from ChEMBL document CHEMBL6096690, “Synthesis and Biological Evaluation of Peripheral HTR2A Antagonists for Colorectal Cancer” (J Med Chem, 2025).

Activity calls are given as the source filed them. The calls are words filed in the database; no cut-off is given here.

Data set [1] in a line: Microsomal stability in human liver microsomes assessed as parent compound remaining measured after 30 mins. Format: ADME, Microsome. The settings on record: read-out: Stability. For orientation: Microsomes from liver hold many membrane-bound enzymes, among them those of drug oxidation.
Data set [2] relates to HCT-116. Put plainly: Induction of apoptosis in human HCT-116 cells assessed as upregulation of acetylated P53 protein expression at 5 to 10 uM incubated for 24 hrs by Western blotting analysis. Type of data set: functional, cell-based. The settings on record: dose 5-10 µM. On the technique in general: In western blotting, separated proteins are transferred to a membrane and probed.

The target of data set [3] is T1, 5-hydroxytryptamine receptor 2C (Homo sapiens) (UniProt P28335).
T1 sequence (whole entry): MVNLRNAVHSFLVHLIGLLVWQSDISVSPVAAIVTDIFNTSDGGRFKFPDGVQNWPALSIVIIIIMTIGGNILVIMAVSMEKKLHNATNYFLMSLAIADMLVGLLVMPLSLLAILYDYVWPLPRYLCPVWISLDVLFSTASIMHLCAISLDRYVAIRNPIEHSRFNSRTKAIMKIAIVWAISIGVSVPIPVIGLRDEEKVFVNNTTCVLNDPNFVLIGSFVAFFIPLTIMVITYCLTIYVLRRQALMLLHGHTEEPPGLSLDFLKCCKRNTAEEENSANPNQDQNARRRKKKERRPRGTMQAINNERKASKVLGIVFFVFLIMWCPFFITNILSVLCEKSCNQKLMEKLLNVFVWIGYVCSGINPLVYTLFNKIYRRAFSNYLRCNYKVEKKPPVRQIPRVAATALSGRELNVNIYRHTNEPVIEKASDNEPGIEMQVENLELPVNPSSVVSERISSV
Put plainly: Inhibition of 5HTR2C (unknown origin) at 1 uM relative to control.

Data set [4] in a line: Clearance in male mouse at 2 mg/kg, iv. Format: ADME, organism-based. The conditions noted are these: in vivo.
A short description of data set [5]: AUCinfinity in male mouse at 2 mg/kg, iv. Type of data set: ADME, organism-based. The settings on record: in vivo.
Data set [6] has as its system SW-620. Put plainly: Induction of apoptosis in human SW620 cells assessed as upregulation of total P53 protein expression at 5 to 10 uM incubated for 24 hrs by Western blotting analysis. Format: functional, cell-based. The settings on record: dose 5-10 µM.
Data set [7] relates to HCT-116. Put plainly: Antitumor activity against human HCT-116 cells xenografted in male athymic nude BALB/c mouse assessed as tumor growth inhibition at 1 mg/kg, ip measured after 19 days relative to control. The conditions noted are these: HCT-116, 456 h, time 19 day, read-out: TGI. Type of data set: functional. For orientation: Xenograft models place foreign cells or tissue in a host animal.

The test system of data set [8] is HCT-116. Nature of the data set: Antitumor activity against human HCT-116 cells xenografted in male athymic nude BALB/c mouse assessed as increase in cleaved caspase 3 expression at 10 mg/kg, ip measured after 19 days by Immunohistochemical analysis. Format: functional, organism-based. The settings on record: time 19.0 day.
Data set [9] in a line: Drug concentration in male ICR mouse plasma at 10 mg/kg, ip measured after 3 hr. Type of data set: ADME, organism-based.
Data set [10] addresses T2, CYP1A2 (Homo sapiens, UniProt P05177).
T2 sequence (P05177 whole entry): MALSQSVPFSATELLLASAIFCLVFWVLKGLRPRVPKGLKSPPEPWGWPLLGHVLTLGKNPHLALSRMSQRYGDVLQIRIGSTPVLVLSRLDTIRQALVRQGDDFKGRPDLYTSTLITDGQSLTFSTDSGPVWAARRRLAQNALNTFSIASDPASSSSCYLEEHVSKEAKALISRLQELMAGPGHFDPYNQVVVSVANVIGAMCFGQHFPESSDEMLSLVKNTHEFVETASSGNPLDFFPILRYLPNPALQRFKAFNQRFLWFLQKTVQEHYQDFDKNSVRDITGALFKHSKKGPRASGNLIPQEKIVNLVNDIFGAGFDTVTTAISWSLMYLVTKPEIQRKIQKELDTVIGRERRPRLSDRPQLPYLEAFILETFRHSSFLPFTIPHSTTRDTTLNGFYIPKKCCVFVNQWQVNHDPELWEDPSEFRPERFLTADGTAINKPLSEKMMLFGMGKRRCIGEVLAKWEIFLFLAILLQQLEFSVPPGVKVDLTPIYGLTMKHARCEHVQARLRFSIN
Nature of the data set: Inhibition of CYP1A2 (unknown origin) at 10 uM relative to control. Format: ADME.

For data set [11], the system named is HCT-116. Put plainly: Induction of apoptosis in human HCT-116 cells assessed as upregulation of total P53 protein expression at 5 to 10 uM incubated for 24 hrs by Western blotting analysis. The settings on record: dose 5-10 µM. Format: functional, cell-based.
For data set [12], the target named is CYP2D6 (Homo sapiens, UniProt P10635). Nature of the data set: Inhibition of CYP2D6 (unknown origin) at 10 uM relative to control. Type of data set: ADME.
Chain of CYP2D6 (P10635 whole entry): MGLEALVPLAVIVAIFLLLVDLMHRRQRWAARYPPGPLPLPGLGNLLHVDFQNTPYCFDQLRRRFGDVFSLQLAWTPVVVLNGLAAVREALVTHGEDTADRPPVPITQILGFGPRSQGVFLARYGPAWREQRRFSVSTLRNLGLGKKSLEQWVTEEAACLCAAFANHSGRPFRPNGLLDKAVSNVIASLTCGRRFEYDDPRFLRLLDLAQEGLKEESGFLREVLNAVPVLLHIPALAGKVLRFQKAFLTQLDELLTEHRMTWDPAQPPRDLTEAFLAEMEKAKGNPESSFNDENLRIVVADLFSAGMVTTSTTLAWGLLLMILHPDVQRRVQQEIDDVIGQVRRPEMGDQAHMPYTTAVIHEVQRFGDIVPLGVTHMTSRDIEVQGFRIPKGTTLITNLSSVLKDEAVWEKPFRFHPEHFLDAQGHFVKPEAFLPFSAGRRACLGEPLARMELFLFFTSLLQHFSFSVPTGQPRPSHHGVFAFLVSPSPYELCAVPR
A short description of data set [13]: Drug concentration in male ICR mouse brain at 10 mg/kg, ip measured after 3 hr. Format: ADME, organism-based. The settings on record: read-out: Ct.
Data set [14] deals with SW-620. Put plainly: Induction of apoptosis in human SW620 cells assessed as increase in apoptotic cells at 5 to 10 uM incubated for 24 hrs by Annexin V/propidium iodide staining based FACS assay. Format: functional, cell-based. The conditions noted are these: dose 5-10 µM.
Data set [15] relates to SW-620. Put plainly: Induction of cell cycle arrest at sub-G1 phase in human SW620 cells assessed as increase in p21 protein expression at 5 to 10 uM incubated for 24 hrs by Western blotting analysis. Format: functional, cell-based. The conditions noted are these: dose 5-10 µM.
In data set [16] the test system is SW-620. Put plainly: Induction of apoptosis in human SW620 cells assessed as upregulation of acetylated P53 protein expression at 5 to 10 uM incubated for 24 hrs by Western blotting analysis. Type of data set: functional, cell-based. The settings on record: dose 5-10 µM.
Data set [17] is described as follows: AUCt in male mouse at 2 mg/kg, iv. Format: ADME, organism-based. The settings on record: in vivo.
A short description of data set [18]: Drug concentration in male ICR mouse plasma at 10 mg/kg, ip measured after 1 hr. Type of data set: ADME, organism-based.

In general, inhibition refers to the drop in the measured response relative to a control, in per cent. The term clearance denotes a measure of how efficiently the substance is removed, as volume per time. Higher therefore signals a high capacity for elimination. By AUC(0-inf) is commonly meant total exposure, with the tail of the curve extrapolated. A low value points to low exposure. As usually defined, the AUC(0-t) is the area under the concentration-time curve up to a stated or last time point. Low values mean less exposure, high ones more exposure. On to `Cl.Cl.O=C(NCc1ccc(OCC(O)CN2CCN(c3noc4cc(F)ccc34)CC2)cc1)N(Cc1ccc(F)cc1)C1CCNCC1` (stereo not drawn), for which the remaining at 0.5 h in [1] was over 99%. Also, the result in data set [2], in data set [6], in data set [8], in data set [11], in [14] and in data set [15] was Active. In [16], the result was Active. Further, the inhibition in data set [3] was 44%. In addition, the clearance in [4] was 67.7 mL/min/kg. For the same molecule, the AUC(0-inf) in data set [5] was 500 ng·h/mL. For the same molecule, the inhibition in vivo at 1 mg/kg in data set [7] was 38.8%. Also, the concentration at 3 h was 271 ng/mL in [9] and under 0.5 ng/g in data set [13]. Moreover, the values for the inhibition at 10 µM in data set [10] and in data set [12] were 4.6% and 55.1%, respectively. For the same molecule, the AUC(0-t) in data set [17] came out at 300 ng·h/mL. This molecule also returned a concentration at 1 h in data set [18] of 463 ng/mL.
